± gives the expanded uncertainty stated by the source.
Key:
[1] = refractive index (Na D-line) (dimensionless); conditions: 298.15 K, 101.33 kPa, Liquid
[2] = 298.15 K, 101.33 kPa, Liquid; for speed of sound: Sing-around technique in a fixed-path interferometer

speed of sound [2] [m/s] | refractive index ([1]; Standard Abbe refractometry) | mass density [2] [kg/m3] | Structure (SMILES) | refractive index [1] | mass density ([2]; Vibrating tube method) [kg/m3]
1096 ± 2 |  |  | CCOC(C)(C)CC [1,1-dimethylpropyl ethyl ether] | 1.38857 | 760.5
1382 ± 4 | 1.5058 ± 0.00069 | 1007 ± 1.6 | CCCCCCCC[n+]1ccn(C)c1.[Cl-] [1-methyl-3-octylimidazolium chloride] |  | 

Structure (SMILES) | speed of sound [2] [m/s] | refractive index ([1]; Standard Abbe refractometry) | mass density [2] [kg/m3] | refractive index [1] | mass density ([2]; Vibrating tube method) [kg/m3]
CCO [ethanol] | 1143 ± 2 |  |  | 1.3592 | 785.22
